Where “and” joins values, the source holds several entries; their conditions need not be identical. Equal entries are not always repeated. Ends that are not written are not given here.
Legend:
[1] = cited from earlier work
[2] = test system: ribosomal A-site model RNA hairpin HRP6; test: ITC binding to bacterial ribosomal A-site model RNA hairpin HRP6 (Example 3); design: species or system Mycobacterium tuberculosis; conditions: sodium acetate buffer (pH 5.5)
[3] = test system: ribosomal A-site model RNA hairpin HRP5; test: ITC binding to human ribosomal A-site model RNA hairpin HRP5 (Example 3); conditions: sodium acetate buffer (pH 5.5)
RNA hairpin HRP2 (A-U) [4] = test: ITC binding of PNA and GPNA to RNA hairpin HRP2 (Example 3); conditions: for -ΔG / -ΔH / -ΔS: acetate pH 5.5
Protocol: (§1) Isothermal Titration calorimetry. In a typical ITC experiment, an RNA hairpin solution (0.95 mL, […]) in acetate buffer [100 mM sodium acetate and 1.0 mM EDTA (pH 5.5)] was titrated with a PNA solution (50×5 μL, […]) using a Nano ITC G2 (TA Instruments) calorimeter. For full experimental details and data, see the Supporting Information. The titration data were analyzed using NanoAnalyze (TA Instruments) using an independent model to obtain the fitting graph and thermodynamic binding data (Table 7).
To gain more insight into different binding modes, guanidine-modified variants of hexamer CTCTTC (PNA4) were prepared and studied their binding to HRP2. […] While there was very little dependence on the number of modifications in the D series (entries 7-9), in the L series (entries 10-12) the affinity appeared to decrease somewhat with an increasing number of guanidine modifications.

RNA hairpin HRP1 (G-C) [5] = test: ITC binding of PNA and GPNA to RNA hairpin HRP1 (Example 3); conditions: for Ka: 100 mM sodium acetate and 1.0 mM EDTA (pH 5.5); for -ΔG / -ΔH / -ΔS: acetate pH 5.5
Protocol: as §1
The guanidine-modified PNA oligomers [GPNA (FIG. 10)] were made using the standard Fmoc synthesis protocols on the Expedite 8909 synthesizer and purified by reverse-phase high-performance liquid chromatography. […] To allow direct comparison, the same GPNA sequences were prepared (FIG. 10), like the PNA used in previous study of triple-helix formation with double-helical RNA. The binding of GPNA to RNA hairpin (HRP1) was studied using isothermal titration calorimetry [ITC (FIG. 11)]. […] Formation of the complex was further confirmed using circular dichroism (CD) spectroscopy. […] Addition of 4.5 equiv (conditions mimicking the end point of ITC titration) of D-GPNA1 and L-GPNA1 to HRP1 induced a decrease in the magnitude of the CD signal at 240-250 nm, which was clearly visible in the difference spectra. However, a significant increase around 280 nm was not observed. […] Overall, the CD spectra confirmed the formation of GPNA-RNA complexes.

DNA version of HRP1 = test: ITC binding of GPNA to a DNA version of HRP1 (Example 3); conditions: acetate pH 5.5
Protocol: as §1
Binding of D-GPNA1 to the HRP1 hairpin, consistent with, made of deoxynucleotides (DNA version of HRP1) was weaker by ˜1 order of magnitude (cf., entries 2 and 4). In contrast, the affinity of L-GPNA1 for either the RNA or DNA hairpin was practically the same (cf., entries 3 and 5). Under physiologically relevant conditions [37° C., in 2 mM MgCl2, 90 mM KCl, 10 mM NaCl, and 50 mM potassium phosphate (pH 7.4)], no binding of D-GPNA1 to HRP1 was observed. The sequence of PNA3 was symmetric and thus provided optimal binding for formation of both a parallel triple helix and an antiparallel duplex, as required for triplex invasion (FIGS. 12A-12C).

RNA hairpin HRP3 (C-G) = test: ITC binding of PNA and GPNA to RNA hairpin HRP3 (Example 3); conditions: sodium acetate buffer (pH 5.5)
Protocol: as §1
(§2) Next the sequence selectivity of binding of GPNA1 to all four RNA hairpins having a variable central base pair [HRP1-HRP4 (FIGS. 6 and 10)] was checked.

RNA hairpin HRP4 (U-A) = test: ITC binding of PNA and GPNA to RNA hairpin HRP4 (Example 3); conditions: sodium acetate buffer (pH 5.5)
Protocol: as §1, §2

RNA hairpin HRP1 (G-C) [6] = test: ITC binding of PNA and GPNA to RNA hairpin HRP1 (Example 3); conditions: 37° C., 2 mM MgCl2, 90 mM KCl, 10 mM NaCl, 50 mM potassium phosphate (pH 7.4)
RNA hairpin HRP2 (A-U) [7] = test: ITC binding of PNA and GPNA to RNA hairpin HRP2 (Example 3); conditions: experiment of entry 13 repeated in acetate buffer at pH 7.3
[8] = 100 mM sodium acetate and 1.0 mM EDTA (pH 5.5)

| Compound | Average association constants Ka, M. tuberculosis (HRP6) [2] [M⁻¹] | Average association constants Ka, H. Sapiens (HRP5) [3] | Ka (RNA hairpin HRP2 (A-U) [4]; [8]) | -ΔG (RNA hairpin HRP2 (A-U) [4]) [kcal/mol] | -ΔH (RNA hairpin HRP2 (A-U) [4]) [kcal/mol] | -ΔS (RNA hairpin HRP2 (A-U) [4]) [eu] | other results |
| --- | --- | --- | --- | --- | --- | --- | --- |
| Nc1cc[nH]c(=O)n1 [cytosine] |  |  |  |  |  |  | pKa [1]: ~4.5 |
| H-CCCTPCTT (cysteine pairing not given here) [PNA13] | 1.5e+06 | NB[b] (No binding; Ka < 10^3 M^−1.) |  |  |  |  |  |
| NH2-CCCTGCTT [PNA10] | 1.2e+06 | 400000 M⁻¹ |  |  |  |  |  |
| NH2-CCCTL-ArgGCTL-ArgT [GPNA10] | 500000 | 2.8e+06 M⁻¹ |  |  |  |  |  |
| NH2-CCCTPexCTT [PNA14] | 2e+06 | NB[b] (No binding; Ka < 10^3 M^−1.) |  |  |  |  |  |
| NH2-CCTGCTT [PNA11] | 200000 | 40000 M⁻¹ |  |  |  |  |  |
| NH2-CTCTD-ArgTC [D-GPNA2] |  |  | 500000 M⁻¹ | 7.8 | 70.0 | 209 |  |
| NH2-CTCTL-ArgTC [L-GPNA2] |  |  | 1.8e+06 M⁻¹ | 8.5 | 39.6 | 104 |  |
| NH2-CTD-ArgCCTD-ArgC [D-GPNA1] |  |  | 300000 M⁻¹ |  |  |  | Ka (RNA hairpin HRP1 (G-C) [5]): 4.6 ± 1.6 ×10^6 M^−1 and 4.6 ×10^6 M^−1; -ΔG (RNA hairpin HRP1 (G-C) [5]): 9.1 ± 0.2 kcal/mol; -ΔH (RNA hairpin HRP1 (G-C) [5]): 27.3 ± 2.5 kcal/mol; -ΔS (RNA hairpin HRP1 (G-C) [5]): 61 ± 9 eu; -ΔG (DNA version of HRP1): 7.7 kcal/mol; -ΔH (DNA version of HRP1): 29.1 kcal/mol; -ΔS (DNA version of HRP1): 72 eu; Ka (DNA version of HRP1): 400000 M⁻¹; Average association constants Ka, HRP3 (C-G) (RNA hairpin HRP3 (C-G)): 700000 M⁻¹; Average association constants Ka, HRP4 (U-A) (RNA hairpin HRP4 (U-A)): 1.3e+06 M⁻¹; binding to HRP1 under physiologically relevant conditions (RNA hairpin HRP1 (G-C) [6]): no binding |
| NH2-CTD-ArgCTD-ArgTD-ArgC [D-GPNA4] |  |  | 600000 M⁻¹ | 7.9 | 22.9 | 50 |  |
| NH2-CTD-ArgCTTD-ArgC [D-GPNA3] |  |  | 500000 M⁻¹ | 7.8 | 41.8 | 114 |  |
| NH2-CTD-ArgTCTD-ArgC [D-GPNA6] |  |  | 5e+06 M⁻¹ | 9.1 | 13.4 | 14 |  |
| NH2-CTD-ArgTD-ArgCTD-ArgC [D-GPNA7] |  |  | 0.4 ± 0.01 ×10^6 M^−1 | 7.6 ± 0.0 | 25.8 ± 3.7 | 61 ± 13 |  |
| NH2-CTGCTT [PNA12] | 200000 | 60000 M⁻¹ |  |  |  |  |  |
| NH2-CTL-ArgCCTL-ArgC [L-GPNA1] |  |  | 800000 M⁻¹ |  |  |  | Ka (RNA hairpin HRP1 (G-C) [5]): 2.2 ± 1.6 ×10^6 M^−1 and 2.2 ×10^6 M^−1; -ΔG (RNA hairpin HRP1 (G-C) [5]): 8.6 ± 0.5 kcal/mol; -ΔH (RNA hairpin HRP1 (G-C) [5]): 24.2 ± 9.6 kcal/mol; -ΔS (RNA hairpin HRP1 (G-C) [5]): 53 ± 34 eu; -ΔG (DNA version of HRP1): 8.7 kcal/mol; -ΔH (DNA version of HRP1): 21.0 kcal/mol; -ΔS (DNA version of HRP1): 41 eu; Ka (DNA version of HRP1): 2.5e+06 M⁻¹; Average association constants Ka, HRP3 (C-G) (RNA hairpin HRP3 (C-G)): 600000 M⁻¹; Average association constants Ka, HRP4 (U-A) (RNA hairpin HRP4 (U-A)): 400000 M⁻¹ |
| NH2-CTL-ArgCTL-ArgTL-ArgC [L-GPNA4] |  |  | 500000 M⁻¹ | 7.8 | 61.6 | 181 |  |
| NH2-CTL-ArgCTTL-ArgC [L-GPNA3] |  |  | 800000 M⁻¹ | 8.0 | 58.8 | 170 |  |
| NH2-CTL-ArgGCTT [GPNA12] | 400000 | 800000 M⁻¹ |  |  |  |  |  |
| NH2-CTL-ArgTL-ArgCTL-ArgC [L-GPNA7] |  |  | 3.8 ± 0.1 ×10^6 M^−1 | 8.9 ± 0.3 | 13.0 ± 7.3 | 14 ± 25 |  |
| NH2-CTTD-ArgCTC [D-GPNA5] |  |  | 1.05e+07 M⁻¹ | 9.6 | 19.8 | 34 | Ka (RNA hairpin HRP2 (A-U) [4]; pH 5.5, antiparallel GPNA): ~10^7; binding to HRP2 in acetate buffer at pH 7.3 (RNA hairpin HRP2 (A-U) [7]): no binding |
| NH2CTL-ArgGCTL-ArgT [GPNA13] | 2.9e+06 | 8.1e+06 M⁻¹ |  |  |  |  |  |

Source: patent US10260089B2, “Compositions and methods for recognition of RNA using triple helical peptide nucleic acids” (The Research Foundation for the State University of New York, priority 2012, dated 2019)
